This note sets out measurements from patent US11628160B2, “Compositions and methods for treating brain injury” (Azevan Pharmaceuticals, Inc., priority 2017, dated 2023).

In the assay the target is T1, human V1a receptor (Homo sapiens, UniProt P37288).
T1 construct: host or cells: CHO cells
Briefly: Human vasopressin V1a receptor binding assay. To be noted: hV1a CHO cell line, competition with 1 nM 3H-AVP; for IC50: read-out: V1a Binding Affinity IC50; for Ki: read-out: V1a Ki. The protocol: EXAMPLE. Human vasopressin V1a receptor binding assay. A cell line expressing the human V1a receptor in CHO cells (henceforth referred to as the hV1a cell line) was obtained from Dr. Michael Brownstein, NIMH, Bethesda, Md., USA. The hV1a cDNA sequence is described by Thibonnier et al., Journal of Biological Chemistry, 269, 3304-3310 (1994), and the expression method was the same as described by Morel et al. (1992). The hV1a cell line was grown in alpha-MEM with 10% fetal bovine serum and 250 ug/ml G418 (Gibco, Grand Island, N.Y., USA). For competitive binding assay, hV1a cells were plated into 6-well culture plate at 1:10 dilution from a confluency flask, and maintained in culture for at least two days. Culture medium was then removed, cells were washed with 2 ml binding buffer (25 mM Hepes, 0.25% BSA, 1×DMEM, PH=7.0). To each well, 990 μl binding buffer containing 1 nM 3H-AVP was added, and followed by 10 μl series diluted Example compounds dissolved in DMSO. […] 100 nM cold AVP (Sigma) was used to assess non-specific binding. Cells were incubated for 45 minutes at 37° C., assay mixture was removed and each well was washed three times with PBS (pH=7.4). 1 ml 2% SDS was added per well and plates were let sit for 30 minutes. The whole content in a well was transferred to a scintillation vial. Each well was rinsed with 0.5 ml PBS which was then added to the corresponding vial. Scintillation fluid (Ecoscint, National Diagnostics, Atlanta, Ga.) was then added at 3 ml per vial. Samples were counted in a liquid scintillation counter (Beckman LS3801). IC50 values were calculated by Prism Curve fitting software.
All of the alkanedioic esters and amides exemplified in the foregoing examples dissolved in DMSO were tested in this assay. Binding curves were generated according to methods described by Thibonnier et al. (1994). [^3H]-AVP was added to the hV1a cell cultures followed by 10-fold dilutions of each test compound.

The term IC50 denotes the concentration needed to halve the response being measured. Usually Ki stands for the equilibrium dissociation constant of an inhibitor or competing ligand from its target.

SMILES strings stand for the structures.

T1 sequence (P37288 whole entry): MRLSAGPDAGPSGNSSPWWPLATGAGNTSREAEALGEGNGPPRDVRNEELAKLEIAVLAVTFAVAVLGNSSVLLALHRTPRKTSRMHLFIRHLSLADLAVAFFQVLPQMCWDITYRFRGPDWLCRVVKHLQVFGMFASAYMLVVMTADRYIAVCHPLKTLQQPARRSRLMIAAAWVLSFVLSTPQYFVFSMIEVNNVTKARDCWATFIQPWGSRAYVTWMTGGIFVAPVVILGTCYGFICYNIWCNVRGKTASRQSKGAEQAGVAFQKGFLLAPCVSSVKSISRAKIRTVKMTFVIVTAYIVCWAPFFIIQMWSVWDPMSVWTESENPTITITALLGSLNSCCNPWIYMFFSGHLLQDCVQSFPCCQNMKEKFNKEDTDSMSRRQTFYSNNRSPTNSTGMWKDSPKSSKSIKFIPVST

`O=C(NCc1cccs1)C(CCC(=O)N1CCN(C2CCCCC2)CC1)N1C(=O)C(N2C(=O)OCC2c2ccccc2)C1C=Cc1ccccc1` (centres unmarked) [Example 213]: the IC50 was 0.78 nM and the Ki was 0.48 nM.
Regarding `O=C(NC1(c2ccccc2)CCCC1)C(CCC(=O)N1CCN(C2CCCCC2)CC1)N1C(=O)C(N2C(=O)OCC2c2ccccc2)C1C=Cc1ccccc1` (centres unmarked) [Example 217], the IC50 worked out at 3.17 nM and the Ki is 1.94 nM.
The corresponding values for `COc1cc(OC)cc(C(C)(C)NC(=O)C(CCC(=O)N2CCN(C3CCCCC3)CC2)N2C(=O)C(N3C(=O)OCC3c3ccccc3)C2C=Cc2ccccc2)c1` (centres unmarked) [Example 218] are 7.7 nM and 4.7 nM.
Turning to `COc1ccc(OC)c(CNC(=O)C(CCC(=O)N2CCN(C3CCCCC3)CC2)N2C(=O)C(N3C(=O)OCC3c3ccccc3)C2C=Cc2ccccc2)c1` (centres unmarked) [Example 219], the IC50 came to 0.63 nM and the Ki was determined as 0.39 nM.
For the compound `COc1ccccc1CNC(=O)C(CCC(=O)N1CCN(C2CCCCC2)CC1)N1C(=O)C(N2C(=O)OCC2c2ccccc2)C1C=Cc1ccccc1` (centres unmarked) [Example 220], the IC50 came to 5.3 nM and the Ki is 3.26 nM.
Regarding `O=C(CC[C@@H](C(=O)N[C@@H]1CCCc2ccccc21)N1C(=O)[C@@H](N2C(=O)OC[C@@H]2c2ccccc2)[C@H]1/C=C/c1ccccc1)N[C@@H]1CCN(Cc2ccccc2)C1` [Example 221AD], the IC50 was around 50 nM.
Still for that read-out and setting: the figure for `CCN1CCCC1CNC(=O)CCC(C(=O)NC1CCCc2ccccc21)N1C(=O)C(N2C(=O)OCC2c2ccccc2)C1C=Cc1ccccc1` (centres unmarked) [Example 221AI] is around 50 nM.
In the case of `Cc1ccc(C2(NC(=O)C(CCC(=O)N3CCN(C4CCCCC4)CC3)N3C(=O)C(N4C(=O)OCC4c4ccccc4)C3C=Cc3ccccc3)CC2)cc1` (centres unmarked) [Example 221AP], the Ki is 3.8 nM.
For the compound `C[C@@H](NC(=O)[C@H](CCC(=O)N1CCN(C2CCCCC2)CC1)N1C(=O)[C@@H](N2C(=O)OC[C@@H]2c2ccccc2)[C@H]1/C=C/c1ccccc1)c1cccc(C(F)(F)F)c1` [Example 221F], the IC50 came to 1.7 nM and the Ki amounted to 1.04 nM.
The like results for `O=C(NC1Cc2ccccc2C1)C(CCC(=O)N1CCN(C2CCCCC2)CC1)N1C(=O)C(N2C(=O)OCC2c2ccccc2)C1C=Cc1ccccc1` (centres unmarked) [Example 221P] were, in that order, 1.7 nM and 1.1 nM.
Consider `O=C(NC1CCc2ccccc21)C(CCC(=O)N1CCN(C2CCCCC2)CC1)N1C(=O)C(N2C(=O)OCC2c2ccccc2)C1C=Cc1ccccc1` (centres unmarked) [Example 221R], for which the IC50 was 5.13 nM and the inhibition constant Ki turned out to be 3.14 nM.
For the compound `Cc1ccccc1C(C)(C)NC(=O)C(CCC(=O)N1CCN(C2CCCCC2)CC1)N1C(=O)C(N2C(=O)OCC2c2ccccc2)C1C=Cc1ccccc1` (centres unmarked) [Example 221], the IC50 amounted to 5.1 nM.
As to `O=C(C(COCc1ccccc1)N1C(=O)C(N2C(=O)OCC2c2ccccc2)C1C=Cc1ccccc1)N1CCC(CN2CCCCC2)CC1` (centres unmarked) [Example 232E], the IC50 turned out to be 0.28 nM and the Ki was 0.17 nM.
For the compound `CCN1CCN(C(=O)CCC(C(=O)NC2(c3ccccc3)CCCC2)N2C(=O)C(N3C(=O)OCC3c3ccccc3)C2C=Cc2ccccc2)CC1` (centres unmarked) [Example 239], the IC50 turned out to be 6.6 nM and the Ki came to 4 nM.
The like results for `O=C(NC1(c2ccccc2)CCCC1)C(CCC(=O)N1CCN(Cc2ccccc2)CC1)N1C(=O)C(N2C(=O)OCC2c2ccccc2)C1C=Cc1ccccc1` (centres unmarked) [Example 240] were, in that order, 25 nM and 15.5 nM.
For the compound `O=C(NC1CCCc2ccccc21)C(CCC(=O)N1CCN(C2CCCC2)CC1)N1C(=O)C(N2C(=O)OCC2c2ccccc2)C1C=Cc1ccccc1` (centres unmarked) [Example 241], the IC50 was 2 nM and the Ki turned out to be 1.24 nM.
Consider `COc1cccc(C=CC2C(N3C(=O)OCC3c3ccccc3)C(=O)N2C(CCC(=O)N2CCN(C3CCCCC3)CC2)C(=O)NC2CCCc3ccccc32)c1` (centres unmarked) [Example 242], for which the IC50 came out at 2.2 nM and the inhibition constant Ki was 1.36 nM.
The corresponding values for `O=C(NC1CCCc2ccccc21)C(CCC(=O)N1CCN(C2CCCCC2)CC1)N1C(=O)C(N2C(=O)OCC2c2ccccc2)C1C=Cc1cccc(Cl)c1` (centres unmarked) [Example 243] are 0.5 nM and 0.3 nM.
